Patent publication US20050238731A1, “Composition and method for treating the effects of diseases and maladies of the upper digestive tract” (priority 2003, published 2005)

Experiments:
[1] = open label observation for control of heart burn in volunteers; type: in vivo, human; conditions: open label observations in people
Excerpt: The preferred ingredients of the dietary supplement formulations for preventing or treating or managing upper digestive disorders referred to in this patent including but not limited to acid related disease, H. pylori infection and ulcerogenic medications, drugs or substances such as alcohol, tobacco smoke or any other damaging agent that is ingested or absorbed in to the body that may cause upper digestive disturbance are listed in one formulation that has undergone open label observation for the control of the symptom heart burn in six volunteers with recurrent heart burn and this formulation was made in several batches of a chewable tablet with the following ingredients that have been modified from time to time. These chewable tablets contain the following ingredients with amounts listed in two chewable tablets. The range of the ingredients has been made in different dosage amounts of each ingredient and tested in at least two volunteers for each of six batches of varying dosage of ingredients. Each batch consistently relieved symptoms of mild moderate or severe heart burn in open labeled observations in volunteers with symptoms of gastresophageal reflux disease.

stomach acid secretion = conditions: rat model, cited from earlier work
gastric acid secretion = conditions: cited from earlier work

Row | Compound | dyspepsia and heartburn [1] | stomach acid secretion (stomach acid secretion; at a certain dosage level) | stomach ulcers (stomach acid secretion) | development of stomach ulcers (gastric acid secretion; animals exposed to cold water immersion or restraint) | gastric acid secretion (gastric acid secretion; animals) | formation of gastric ulcers (gastric acid secretion; pylorus-ligated animals)
1 | O=c1oc2c(O)c(O)cc3c(=O)oc4c(O)c(O)cc1c4c23 [ellagic acid] | has helped people with dyspepsia and heartburn | stomach acid secretion was blocked | ulcers could be prevented in part |  |  | 
2 | salvianolic acid |  |  |  | prevents the development of stomach ulcers | reduce gastric acid secretion | reduce the formation of gastric ulcers
